{
  "source": "patent US20240368351A1",
  "about": "“FACTORS CONTROLLING DRUG RELEASE IN CROSS-LINKED POLY(VALEROLACTONE) BASED MATRICES” (Pendant Biosciences, Inc., priority 2019, published 2024)",
  "key": {"[1]": {"experiment": "Solubility of Drug X in organic solvents and water", "assay_type": "physicochemical"}, "[2]": {"experiment": "In vitro drug release from microparticles", "assay_type": "physicochemical", "description": "There is no significant difference with Mesh, NaCl, and EtOH for release rate. Drug X loaded MPs show insufficient washing (high t=0) and burst release in a day.\nMethod: We will use a dialysis bag to properly change release media without loss of microparticle. This will prevent accumulation of Drug X degradation over time and allow more accurate release analysis. We will examine release with Drug X-loaded microparticle in different media (i.e. only PBS at pH 7.5).\n(§1) Method: Drug X-loaded microparticle in release media will be taken after 1 hrs and utilized to extract residue Drug X from microparticle."}, "[3]": {"experiment": "Extraction and recovery of Drug X from discs and microparticles (stability in polymer matrix)", "assay_type": "physicochemical", "method": "In Table 53, a study was conducted in which a Drug X-loaded disc was placed in 10 mL of dichloromethane (DCM) for 8 hr at room temperature to extract Drug X, and DCM was removed using a rotary evaporator at 25° C. This extraction process was repeated two times. The extracted drug dissolved in a acetonitrile (ACN) was filtered using 0.45 μm a nylon membrane and measured by HPLC for extraction efficiency.\nas §1\nWe took out a disc after 2 weeks of release and freeze fried it. Then, the residual Drug X remaining in discs was extracted using dichloromethane to confirm Drug X stability in the disc."}, "[4]": {"conditions": "cited from earlier work"}, "blood plasma protein": {"test_system": "blood plasma protein", "conditions": "cited from earlier work"}, "[5]": {"experiment": "logP (octanol-water partition) by shake tube method", "assay_type": "physicochemical", "conditions": "read-out: Calculated LogP"}, "[6]": {"experiment": "Drug solubility in different release media (PBS with Tween 80 or SDS)", "assay_type": "physicochemical", "conditions": "release media (PBS with Tween 80 or SDS), 37 °C, pH 7.4, aqueous with cosolvent or surfactant or cyclodextrin, thermodynamic from solid", "method": "Mikkelsen, L. M., Enzyme solubility in liquid detergent and use of detergent composition. […] Crotts, G.; Park, T. G. Protein delivery from poly(lactic-co-glycolic acid) biodegradable microspheres: Release kinetics and stability issues. […] FDA.\nThe solutions were centrifuged at 8000 rpm for 10 minutes, and a 1 ml aliquot was withdrawn, filtered through a 0.45 μm nylon membrane, and analyzed by HPLC."}, "[7]": {"conditions": "pure PBS pH 7.4; cited from earlier work"}, "[8]": {"test_system": "L929 mouse fibroblast cells", "protocol": "Cytotoxicity evaluation: CPs were incubated in culture media at a surface area to volume ratio of 1.25 cm^2/mL for 48 h. […] The L929 fibroblast cells were cultured and routinely maintained in Dulbecco's modified Eagle's medium (DMEM) supplemented with 10% fetal bovine serum (FBS) and 1% penicillin-streptomycin. The cells were grown in a monolayer in tissue culture flasks incubated at 37° C. and 5% CO2 at 90% relative humidity. Cells were counted and seeded in 96-well plates at a density of 2000 cells/well, which was determined to be the optimum cell density. After 24 h incubation, growth media was aspirated and replaced with either 150 μL CPs extracts at a surface area to volume ratio of 1.25 cm^2/mL or the same volume of extraction media that had been serially diluted to the above concentrations. Following 24, 48, and 72 h incubation periods, cell viability was evaluated using the MTS assay. Specifically, the extraction media was aspirated and replaced with 200 μL of fresh media followed by 20 μL of MTS reagent, and the cells were incubated at 37° C. for 1.5 h. Cell viability was measured by optical absorbance at 2=490 nm using a Cytation™ 5 Cell Imaging Multi-Mode Reader (BioTek, Vermont). […]\nThe cytotoxicities of the cross-linked matrices were evaluated in L929 mouse fibroblast cells using the extraction dilution method (FIG. 16)."}},
  "data": [
    {"molecule": "CC(C)OC(=O)[C@H](C)N[P@](=O)(CO[C@H](C)Cn1cnc2c(N)ncnc21)Oc1ccccc1", "note": "[Drug X]", "values": [
      {"measurement": "Solubility in EtOH/DMSO (50/50)", "setting": "[1]; 5 mg per 100 mL or μL", "value": "Soluble, and"},
      {"measurement": "Solubility in DMSO/Water (50/50)", "setting": "[1]; 5 mg per 200 mL or μL", "value": "Insoluble"},
      {"measurement": "Solubility in Water", "setting": "[1]; 5 mg per 200 mL or μL", "value": "Insoluble"},
      {"measurement": "time within which most of Drug X is released from MP", "setting": "[2]", "value": "≤ 1", "unit": "h"},
      {"measurement": "Drug X remained inside the MP after extraction", "setting": "[2]; after 1 hr release", "value": "around 100 μg"},
      {"measurement": "degradation (second HPLC peak) in release and extraction samples", "setting": "[3]; 1 hr time point, microparticles", "value": "no second peak detected"},
      {"measurement": "Drug X recovered from the extraction", "setting": "[3]; after two-day release", "value": "~35", "unit": "%"},
      {"measurement": "drug recovered from the discs (release & extraction)", "setting": "[3]; disc after 2 weeks of release, dichloromethane extraction", "value": "88-93%"},
      {"measurement": "Drug X released", "setting": "[3]; during the two-day release", "value": "~50", "unit": "%"},
      {"measurement": "extraction efficiency", "setting": "[3]; in the disc", "value": 85, "unit": "%"},
      {"measurement": "total recovered of the encapsulated Drug X", "setting": "[3]; release plus extraction", "value": "83%-90%"},
      {"measurement": "Log P", "setting": "[4]", "value": 1.6},
      {"measurement": "Water solubility", "setting": "[4]", "value": "(4.86 mg/mL)"},
      {"measurement": "Water solubility (words)", "setting": "[4]", "value": "Soluble in water"},
      {"measurement": "pKa", "setting": "[4]", "value": 2.74},
      {"measurement": "bound to blood plasma protein", "setting": "blood plasma protein", "value": 80, "unit": "%"}
    ]},
    {"molecule": "CC1(C)O[C@@H]2C[C@H]3[C@@H]4CCC5=CC(=O)C=C[C@]5(C)[C@@]4(F)[C@@H](O)C[C@]3(C)[C@]2(C(=O)CO)O1", "note": "[Triamcinolone acetonide, triamcinolone acetonide]", "values": [
      {"measurement": "logP", "setting": "[5]", "value": 2.3},
      {"measurement": "solubility at 48 h", "setting": "[6]", "value": "287 ± 56.9", "unit": "µg/mL"},
      {"measurement": "TAA solubility", "setting": "[7]", "value": 2.1, "unit": "µg/mL"}
    ]},
    {"molecule": "high density polyethylene [HDPE]", "values": [
      {"measurement": "decrease in cell viability relative to the untreated control", "setting": "[8]", "value": "approximately 66%"}
    ]}
  ]
}
